Source: article PMC11784145, “Efficacy and in vitro pharmacological assessment of novel N-hydroxypyridinediones as hepatitis B virus ribonuclease H inhibitors” (Antimicrobial Agents and Chemotherapy, 2024)

Key:
[1] = tested on: HBV replication (HBV plus-polarity DNA strand); assay: HBV replication inhibition, strand preferential qPCR in hepDES19 cells; type: cell-based, hepatitis B virus; settings: for EC50: 72 h exposure, HBV plus-polarity strand suppression, highest concentration tested 100 µM, mean ± SD, read-out: HepDES19 EC50
Description: HBV replication inhibition was measured in hepDES19 cells following 72 h compound exposure without compound replenishment. EC50 values were determined by HBV plus-polarity strand suppression using a strand preferential qPCR assay, as described previously ([28]). Three or more replicate values were obtained on different days.

[2] = Solubility limit, turbidimetric assay; type: physicochemical; settings: upper limit 200 µM
Description: Solubility limits were determined by a turbidimetric assay, as described ([27]), with the solubility limit being defined as the compound concentration where light scattering began to rise. Two or more replicate assays were performed for each compound at each pH on different days.

[3] = Parallel artificial membrane permeability assay (PAMPA); type: in vitro ADME
Description: Compound Papp values were determined by normalizing the experimental compound absorbance to the compounds’ absorbances at equilibrium, membrane porosity, buffer volume, and time (s). Two or more replicate assays were obtained on separate days for each pH.

Microsome stability = type: in vitro ADME, human; settings: human, microsomes
Description: Human liver microsomes (gender pooled, 50 individuals) were purchased from BioIVT and stored at −80°C until use. […] Reactions were initiated by addition of 1.2 mM NADPH. […] Microsomal proteins were pelleted at 4,000 × g and the supernatant was analyzed via LCMS/MS. […] The ln percent remaining values were plotted against time, the negative slope was taken (k), and compound half-life (t1/2) was determined using ln2/k. Intrinsic clearance (Clint [µL/min/mg]) was calculated by (V × ln2)/t1/2, where V is the incubation volume (µL) divided by the protein concentration in the reaction (mg) ([31]).

HepDES19 cells = settings: read-out: HepDES19 CC50; 72 h, MTS; highest concentration tested 100 µM; mean ± SD
[4] = target: T1, human ribonuclease H1 (huRNase H1) (Homo sapiens, UniProt O60930); assay: Human RNase H1 inhibition, fluorescent biochemical assay; settings: for IC50: recombinant huRNase H1, RNA:DNA heteroduplex substrate
T1 construct: made in house; host or cells: Escherichia coli
T1 sequence (O60930 1-286): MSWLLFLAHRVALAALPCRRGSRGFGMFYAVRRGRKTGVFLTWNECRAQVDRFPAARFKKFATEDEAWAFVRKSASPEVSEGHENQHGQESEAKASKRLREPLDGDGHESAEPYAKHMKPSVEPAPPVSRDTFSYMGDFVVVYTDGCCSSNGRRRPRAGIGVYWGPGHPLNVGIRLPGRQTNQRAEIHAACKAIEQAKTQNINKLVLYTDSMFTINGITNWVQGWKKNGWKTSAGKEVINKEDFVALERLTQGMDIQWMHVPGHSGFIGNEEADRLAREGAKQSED
Description: Recombinant human ribonuclease H1 (huRNase H1) was expressed in Escherichia coli and purified by nickel affinity chromatography, as described previously ([30]). […] The heteroduplex substrate was prepared, as described by Ponzar et al. ([30]). Reactions were initiated by the addition of MgCl2 (5 mM final) and were performed on a Biotek Synergy HTX multi-mode plate reader at 28°C.
Maximum rates of fluorescence increase were calculated using the Biotek Gen5 v3.15 software and percentage activity was determined for each compound concentration by subtracting rates from no enzyme reactions and normalizing to DMSO reactions. […] Reactions were performed at least three times on separate days.

[5] = pH 5 (fed simulated intestinal fluid)
[6] = pH 6.5 (fasted simulated intestinal fluid)

Row | Compound | HepDES19 SI (CC50/EC50) [1] | EC50 [1] [nM] | Average Sol (solubility limit) [2, 5] [µM] | Sol 1 (solubility limit) ([2]; pH 5, replicate 1) [µM] | Sol 2 (solubility limit) ([2]; pH 5, replicate 2) [µM] | Average Sol (solubility limit) [2, 6] [µM] | Sol 1 (solubility limit) ([2]; pH 6.5, replicate 1) [µM] | Sol 2 (solubility limit) ([2]; pH 6.5, replicate 2) [µM] | Average Sol (solubility limit) ([2]; pH 7.4 (DMEM-F12 with 10% FBS)) [µM] | Sol 1 (solubility limit) ([2]; pH 7.4, replicate 1) [µM] | Sol 2 (solubility limit) ([2]; pH 7.4, replicate 2) [µM] | Avg Papp (PAMPA) ([3]; FeSSIF pH 5) [×10⁻⁶ cm/s] | Interpretation (PAMPA Papp) ([3]; FeSSIF pH 5) | Papp 1 (PAMPA) ([3]; FeSSIF pH 5, replicate 1) [×10⁻⁶ cm/s] | Papp 2 (PAMPA) ([3]; FeSSIF pH 5, replicate 2) [×10⁻⁶ cm/s] | Avg Papp (PAMPA) ([3]; pH 7.4) [×10⁻⁶ cm/s] | Interpretation (PAMPA Papp) ([3]; pH 7.4) | Papp 1 (PAMPA) ([3]; pH 7.4, replicate 1) [×10⁻⁶ cm/s] | Papp 2 (PAMPA) ([3]; pH 7.4, replicate 2) [×10⁻⁶ cm/s] | CC50 (HepDES19 cells) [nM] | further results
1 | CC(=NOCc1ccc(C(F)(F)F)cc1)c1c(C)cc(=O)n(O)c1O [Compound 1235] | 26.3 | 1870 ± 351 | > 200 | > 200 | > 200 | 167 | 100 | > 200 | > 200 | > 200 | > 200 | 18 | H (H: Papp > 1*10-6) | 22.7 | 13.2 | 3.34 | H (H: Papp > 1*10-6) | 2.29 | 4.4 | 49200 ± 19200 | Sol 3 (solubility limit) ([2]; pH 6.5, replicate 3): > 200 µM; Clearance (intrinsic clearance, Clint) (Microsome stability): 5.48 µL/min/mg; Half-life (Microsome stability): >30 min
2 | CC(=NOCc1ccc(Cl)cc1)c1c(C)cc(=O)n(O)c1O [Compound 1466] | 130 | 359 ± 240 | > 200 | > 200 | > 200 | > 200 | > 200 | > 200 | > 200 | > 200 | > 200 | 20.4 | H (H: Papp > 1*10-6) | 23.2 | 17.6 | 1.69 | H (H: Papp > 1*10-6) | 0.299 | 2.48 | 46600 ± 13600 | Papp 3 (PAMPA) ([3]; pH 7.4, replicate 3): 2.29 ×10⁻⁶ cm/s; Selectivity of HBV replication inhibition over huRNase H1 (huRNase H1 IC50 versus HBV EC50) [4]: at least 10 fold; Half-life (Microsome stability): >30 min
3 | CC(=NOCc1ccc(OCc2ccccc2)cc1)c1c(C)cc(=O)n(O)c1O [Compound 1738] | 6.53 | 7490 ± 1730 | > 200 | > 200 | > 200 | > 200 | > 200 | > 200 | 167 | > 200 | 100 | 25.9 | H (H: Papp > 1*10-6) | 19.9 | 42.6 | 5.42 | H (H: Papp > 1*10-6) | 1.34 | 9.64 | 51400 ± 19200 | Sol 3 (solubility limit) ([2]; pH 7.4, replicate 3): > 200 µM; Papp 3 (PAMPA) ([3]; FeSSIF pH 5, replicate 3): 3.74 ×10⁻⁶ cm/s; Papp 4 (PAMPA) ([3]; FeSSIF pH 5, replicate 4): 37.3 ×10⁻⁶ cm/s; Papp 3 (PAMPA) ([3]; pH 7.4, replicate 3): 9.47 ×10⁻⁶ cm/s; Papp 4 (PAMPA) ([3]; pH 7.4, replicate 4): 1.23 ×10⁻⁶ cm/s; IC50 [4]: 560 nM
4 | CC(=NOCc1cc(F)ccc1F)c1c(C)cc(=O)n(O)c1O [Compound 1810] | 54.0 | 1850 ± 758 | 167 | 100 | > 200 | 100 | 100 | 100 | 167 | > 200 | 100 | 20.7 | H (H: Papp > 1*10-6) | 17.2 | 24.2 | 3.23 | H (H: Papp > 1*10-6) | 1.13 | 2.26 | > 100000 | Sol 3 (solubility limit) ([2]; pH 5, replicate 3): > 200 µM; Sol 3 (solubility limit) ([2]; pH 7.4, replicate 3): > 200 µM; Papp 3 (PAMPA) ([3]; pH 7.4, replicate 3): 7.59 ×10⁻⁶ cm/s; Papp 4 (PAMPA) ([3]; pH 7.4, replicate 4): 1.29 ×10⁻⁶ cm/s; Papp 5 (PAMPA) ([3]; pH 7.4, replicate 5): 3.89 ×10⁻⁶ cm/s; IC50 [4]: 820 nM
